Patent US12391701B2, “Chromene-based compounds, methods and uses thereof” (University of Minho, priority 2019, dated 2025)

Assays:
Assay type in all cases: cell-based
TNBC cell line Hs578t = experiment: Cell viability assay (MTS), Hs578t; conditions: Homo sapiens, Hs-578T; 72 h incubation
Excerpt: In an embodiment, for a comparison study, monomers and respective dimers were selected and further evaluated in Hs578t and MDA-MB-468 breast cell lines. […] These cell lines correspond to the basal-like subtype of breast cancer, included in the known triple negative subtype, since they are negative for Estrogen receptor (ER), progesterone receptor (PR) and Human epidermal growth factor receptor 2 (HER2) molecular markers. The clinical behaviour of these breast cancer subtype is very aggressive and there is still no specific molecular therapy available.
In an embodiment, three human breast cancer cell lines Hs578T, MDA-MB-468 and MCF-7, and a normal breast cell line MCF-10A, were obtained from ATCC (American Type Culture Collection). The cancer cell lines were cultured in Dulbecco's modified Eagle medium, 4.5 g/l glucose (DMEM, Gibco) supplemented with 10% heating inactivated Fetal Bovine Serum (FBS, Gibco) and 1% antibiotic solution (Penicillin-Streptomycin, Gibco). The normal cell line was cultured in Dulbecco's Modified Eagle Medium: Nutrient Mixture F-12 (DMEM/F12, Gibco) supplemented with 5% heating inactivated FBS (Gibco), 1% antibiotic solution (Penicillin-Streptomycin, Gibco), 1% steroid hormone (Hydrocortisone, Sigma-Aldrich), 0.1% peptide hormone (Insulin, Sigma-Aldrich) and 0.01% protein complex (Cholera Toxin, Gibco). Two distinct human acute myeloid leukemia (AML) cell lines, HL-60 (FAB M2) and KG-1 (erythroleukemia-FAB M6), and one human lymphoblastic leukemia (ALL) cell line, Jurkat (T cell type), were also used. These three cell lines were obtained from German Collection of Microorganisms and Cell cultures (DMSZ®, Deutsche Sammlung von Mikroorganismen and Zellkulturen in German). Cells were cultured in RPMI 1640 medium (Biochrom®-Merck Millipore) supplemented with 10% heating inactivated FBS (Biochrom®-Merck Millipore) and 1% antibiotic/antimitotic mixture (Invitrogen®). Three human glioblastoma (GBM) cell line models, two established and commercially available cell lines (U87MG and GAMG, kind gift from Rui M. Reis) and one primary GBM culture (GLIB) were also used. GBM cells were cultures in DMEM (Biochrom-Merck Millipore), all supplemented with 10% FBS. The Renal cell carcinoma cell lines A498, 786-O, Caki-2 and HK2 were obtained from ATCC. The cancer cell line A498 was cultured in MEM medium (Biochrom®-Merck Millipore), 786-O was cultured in RPMI 1640 medium (Biochrom®-Merck Millipore), Caki-2 was cultured in Mc Coys medium (Biochrom®-Merck Millipore) and HK2 was cultured in RPMI 1640 medium (Biochrom®-Merck Millipore). All the media were supplemented with 10% heat inactivated FBS (Biochrom®-Merck Millipore) and 1% antibiotic/antimitotic mixture (Invitrogen®). All cells were grown in a humidified incubator at 37° C. and 5% CO2. For all assays, DMSO (Dimethyl Sulfoxide, Sigma-Aldrich) controls were used.
In an embodiment, cell viability assays were performed. MCF-7, Hs578T and MCF-10A cells were plated in triplicate in 96-multiwell culture plates, at 3000 cells […], or 5000 cells […] for MDA-MB-468 (100 μL/well). The cells were then allowed to adhere in complete medium, over a period of 18-20 hours. Cells were subsequently treated with 7 different concentrations (from 0.1 to 40 μM or 5 to 60 μM) of compounds or control in fresh medium. HL-60, KG-1 and Jurkat cell lines were plated in 96-multiwell culture plates at 50.000 cells/100 μL per well and treated with different concentrations (from 0.001 to 2 μM) of the compounds described (or control). Cells were plated, in triplicate, at an initial density of 2000 cells/well for GAMG, 4000 cells/well for GL18 and 6000 cells/well for U87MG, in 96-well plates, and allowed to adhere for 18-20 hours. Cells were then treated with different concentrations of the compounds (0.005 to 100 μM) or with control. […]

[1] = test system: cediranib-resistant Caki-2 cell line; experiment: Cell viability, cediranib-resistant Caki-2; conditions: for IC50: Homo sapiens, CAKI-2
Description: (§1) In an embodiment, the antiproliferative activity of compounds MC421, MC409, MC408, MC350, MC416, MC410, MC411, MC415 and MC413 was further determined against drug-resistant renal carcinoma cell lines.
(§2) In an embodiment, cell viability assays were performed. MCF-7, Hs578T and MCF-10A cells were plated in triplicate in 96-multiwell culture plates, at 3000 cells per mL, or 5000 cells per mL for MDA-MB-468 (100 μL/well). The cells were then allowed to adhere in complete medium, over a period of 18-20 hours. Cells were subsequently treated with 7 different concentrations (from 0.1 to 40 μM or 5 to 60 μM) of compounds or control in fresh medium. HL-60, KG-1 and Jurkat cell lines were plated in 96-multiwell culture plates at 50.000 cells/100 μL per well and treated with different concentrations (from 0.001 to 2 μM) of the compounds described (or control). Cells were plated, in triplicate, at an initial density of 2000 cells/well for GAMG, 4000 cells/well for GL18 and 6000 cells/well for U87MG, in 96-well plates, and allowed to adhere for 18-20 hours. Cells were then treated with different concentrations of the compounds (0.005 to 100 μM) or with control. A498 and 786-O cells were plated at 2000 cells per mL, Caki-2 cells were plated at 3000 cells per mL and HK2 cells were plated at 2000 cells per mL in triplicate, in 96-multiwell culture plates (100 μL/well), and allowed to adhere over a period of 18-20 hours in complete medium. The cells were then treated with 7 different concentrations (from 0.1 to 40 μM or 5 to 60 μM) of compounds or control in fresh medium. After 72 h of incubation, the MTS (Promega) reduction assay was performed according to manufacturer's instructions to indirectly assess the percentage of viable cells through metabolic cell viability. After 1-2 hours of incubation with MTS in a humidified atmosphere at 37° C. and 5% CO2, absorbance was measured at 490 nm. For RCC cell lines, sulforhodamine B assay was used according to manufacturer's instructions. The data was log-transformed and the concentration of each compound that decreased the number of viable cells to 50% (IC50) relative to control was calculated using the GraphPad Prism 6 software.

[2] = test system: TNBC cell line MDA-MB-231; experiment: Cell viability assay, MDA-MB-231; conditions: Homo sapiens
[3] = test system: rapamycin-resistant A498 cell line; experiment: Cell viability, rapamycin-resistant A498; conditions: for IC50: Homo sapiens, A498
Description: as §1, §2

COc1ccc(-c2nc3c([nH]2)Cc2cccc(OC)c2O3)c(Br)c1O [MC416, 2-bromo-6-methoxy-3-(5-methoxy-3,9-dihydrochromeno[2,3-]imidazol-2-yl)phenol]
IC50 (TNBC cell line Hs578t): 3160 nM
Selectivity Index (vs HK2) Caki-2 Resistant [1]: 1.97
IC50 [1]: 1.59 µM

COc1cccc2c1Oc1nc(-c3ccc(Br)cc3)[nH]c1C2C1c2cccc(OC)c2Oc2nc(-c3ccc(Br)cc3)[nH]c21 (centres unmarked) [MC421, 2,2′-bis(4-bromophenyl)-5,5′-dimethoxy-1,1,9,9′-tetrahydro-9,9′-bichromeno[2,3-]imidazoles]
IC50 [2]: 2960 nM
Selectivity Index (vs HK2) A498 Resistant [3]: 14.56
IC50 [3]: 0.16 µM
IC50 (TNBC cell line Hs578t): 35 nM
Selectivity Index (vs HK2) Caki-2 Resistant [1]: 123.50
IC50 [1]: 0.02 µM

COc1cccc2c1Oc1nc(-c3ccccc3)[nH]c1C2 [MC350, 5-methoxy-2-phenyl-3,9-dihydrochromeno[2,3-d]imidazoles]
IC50 [2]: 2520 nM
Selectivity Index (vs HK2) A498 Resistant [3]: 12.27
IC50 [3]: 1.62 µM
Selectivity Index (vs HK2) Caki-2 Resistant [1]: 32.28
IC50 [1]: 0.646 µM

COc1cccc2c1Oc1nc(-c3ccc(Br)cc3)[nH]c1C2 [MC408, 2-(4-bromophenyl)-5-methoxy-3,9-dihydrochromeno[2,3-d]imidazoles]
IC50 [2]: 2560 nM
Selectivity Index (vs HK2) A498 Resistant [3]: 2.26
IC50 [3]: 1.07 µM
IC50 (TNBC cell line Hs578t): 47 nM
Selectivity Index (vs HK2) Caki-2 Resistant [1]: 123.79
IC50 [1]: 0.028 µM

COc1cccc2c1Oc1nc(-c3ccccc3F)[nH]c1C2 [MC407, 2-(2-fluorophenyl)-5-methoxy-3,9-dihydrochromeno[2,3-d]imidazoles]
IC50 [2]: 1650 nM

COc1cccc2c1Oc1nc(-c3ccccc3F)[nH]c1C2C1c2cccc(OC)c2Oc2nc(-c3ccccc3F)[nH]c21 (centres unmarked) [MC369, 2,2′-bis(2-fluorophenyl)-5,5′-dimethoxy-1,1,9,9′-tetrahydro-9,9′-bichromeno[2,3-]imidazoles]
IC50 [2]: 2520 nM

COc1cccc2c1Oc1nc(-c3ccc(F)cc3)[nH]c1C2 [MC409, 2-(4-fluorophenyl)-5-methoxy-3,9-dihydrochromeno[2,3-d]imidazoles]
IC50 [2]: 2700 nM
Selectivity Index (vs HK2) A498 Resistant [3]: 5.84
IC50 [3]: 0.51 µM
IC50 (TNBC cell line Hs578t): 270 nM
Selectivity Index (vs HK2) Caki-2 Resistant [1]: 9.56
IC50 [1]: 0.33 µM

COc1cccc2c1Oc1nc(-c3ccc(O)cc3)[nH]c1C2 [MC413, 4-(5-methoxy-3,9-dihydrochromeno[2,3-d]imidazol-2-yl)phenol]
IC50 [2]: 630 nM
Selectivity Index (vs HK2) A498 Resistant [3]: 12.32
IC50 [3]: 0.77 µM
IC50 (TNBC cell line Hs578t): 990 nM
Selectivity Index (vs HK2) Caki-2 Resistant [1]: 29.6
IC50 [1]: 0.335 µM

CCOc1ccc(-c2nc3c([nH]2)Cc2cccc(OC)c2O3)cc1 [MC415, 2-(4-ethoxyphenyl)-5-methoxy-3,9-dihydrochromeno[2,3-d]imidazoles]
IC50 [2]: 1420 nM
Selectivity Index (vs HK2) A498 Resistant [3]: 8.03
IC50 [3]: 0.58 µM
IC50 (TNBC cell line Hs578t): 580 nM
Selectivity Index (vs HK2) Caki-2 Resistant [1]: 64.5
IC50 [1]: 0.08 µM

COc1cccc2c1Oc1nc(-c3ccc(F)cc3)[nH]c1C2C1c2cccc(OC)c2Oc2nc(-c3ccc(F)cc3)[nH]c21 (centres unmarked) [MC406, 2,2′-bis(4-fluorophenyl)-5,5′-dimethoxy-1,1,9,9′-tetrahydro-9,9′-bichromeno[2,3-]imidazoles]
IC50 [2]: 1290 nM
IC50 (TNBC cell line Hs578t): 53 nM

COc1cccc2c1Oc1nc(-c3cc(F)cc(F)c3O)[nH]c1C2 [MC410, 2,4-difluoro-6-(5-methoxy-3,9-dihydrochromeno[2,3-d]imidazol-2-yl)phenol]
IC50 [2]: > 30000 nM
IC50 (TNBC cell line Hs578t): > 20000 nM
Selectivity Index (vs HK2) Caki-2 Resistant [1]: 2.60
IC50 [1]: 6.41 µM

COc1ccccc1-c1nc2c([nH]1)Cc1cccc(OC)c1O2 [MC411, 5-methoxy-2-(2-methoxyphenyl)-3,9-dihydrochromeno[2,3-]imidazoles]
IC50 [2]: 1780 nM
IC50 (TNBC cell line Hs578t): 8610 nM
Selectivity Index (vs HK2) Caki-2 Resistant [1]: 1.92
IC50 [1]: 1.62 µM
